Test results taken from PMC2923755, “Thermolability of mutant MMACHC protein in the vitamin B12-responsive cblC disorder” (Molecular Genetics and Metabolism, 2010).

Legend:
[1] = molecular target: T1, MMACHC-wt (Homo sapiens, UniProt Q9Y4U1); experiment: Differential scanning fluorimetry (DSF), stabilization by cobalamins; type: binding; settings: for ΔTm max: Tm at 50 μM ligand minus Tm at 0 μM ligand; for AC50: half-maximal effective ligand concentration for stabilization, 3 μM protein, fit of ΔTm vs ligand concentration
T1 construct: His-tag (N, cleaved yes); made in house; host or cells: E. coli BL21 DE3
T1 sequence (Q9Y4U1 1-282): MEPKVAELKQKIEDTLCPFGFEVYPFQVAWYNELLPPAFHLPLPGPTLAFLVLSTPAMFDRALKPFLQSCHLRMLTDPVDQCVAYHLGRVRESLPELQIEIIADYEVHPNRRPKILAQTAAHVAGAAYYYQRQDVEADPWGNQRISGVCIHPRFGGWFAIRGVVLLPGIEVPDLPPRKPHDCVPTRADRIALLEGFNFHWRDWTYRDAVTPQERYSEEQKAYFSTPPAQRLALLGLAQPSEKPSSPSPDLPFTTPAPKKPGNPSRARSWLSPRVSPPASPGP
Experimental: (§1) DSF was performed and analyzed as described in Niesen et al., with minor modifications. Purified MMACHC proteins were diluted to 0.1 mg/ml (3 μM) in buffer (10 mM HEPES pH 7.5, 0.5 M NaCl, 5% glycerol) with 1:1000 Sypro Orange (Invitrogen) and run in triplicate. The proteins were heated from 5 to 75 °C with a ramp rate of 1 °C/min in a thermocycler (Bio-rad C1000 Thermocycler, CFX96 Real-time system). All graphs were normalized so that minimum fluorescence was set to 0 and maximum fluorescence set to 1. […] Final graphs and AC50’s were generated using Kadeidagraph 4.0 software (Synergy Software, Reading, PA). AC50’s were determined by fitting the ΔTm vs. ligand concentration curves to the equation ΔTm = ΔTm max[S]/(AC50 + [S]) where ΔTm is the change in melting temperature (Tm[protein + ligand] − Tm[protein]), ΔTm max is the maximal change in Tm at saturating (50 μM) ligand concentration and [S] is the ligand concentration.
(§2) Wild-type (MMACHC-wt) and mutant (MMACHC-R161Q) MMACHC were expressed and purified to >95% purity, with His-tag removed, as judged by SDS–PAGE (Fig. 2A). In order to investigate the thermostability of MMACHC we used DSF, a method that measures protein stability and ligand-induced changes in stability [[20,21]]. DSF uses an environmentally sensitive dye, such as Sypro orange, to monitor protein-unfolding caused by heat denaturation. As the protein unfolds, the dye, which has a higher fluorescence quantum yield in nonpolar environments than in aqueous media, binds to hydrophobic regions of the protein, causing a large increase in fluorescence [[22,23]]. Protein stability is expressed as the melting point of the protein (Tm), that is, the transition midpoint of the fluorescence curve, corresponding to the temperature at which half of the protein molecules are folded and half are unfolded. […] Even lower was the stability of MMACHC-R161Q (Tm = 37.1 ± 0.7 °C) (Fig. 2B). The difference in Tm was small but nonetheless significant (p < 0.01). A second difference between the wild-type and mutant proteins was the shape of the unfolding curves, with the unfolding of the mutant protein showing high cooperativity indicating a two-state unfolding mechanism while the unfolding of the wild-type protein stretched over a larger temperature range and comprised two phases (Fig. 2B; also Fig. 3A at 0 μM OHCbl).

[2] = molecular target: T2, MMACHC-R161Q (Homo sapiens, UniProt Q9Y4U1, R161Q); experiment: as above; type: binding; settings: for ΔTm max: Tm at 50 μM ligand minus Tm at 0 μM ligand; for ΔTm max / AC50: DSF; for AC50: half-maximal effective ligand concentration for stabilization, 3 μM protein, fit of ΔTm vs ligand concentration
T2 construct: His-tag (N, cleaved yes); made in house; host or cells: E. coli BL21 DE3
T2 sequence (Q9Y4U1 1-282 R161Q): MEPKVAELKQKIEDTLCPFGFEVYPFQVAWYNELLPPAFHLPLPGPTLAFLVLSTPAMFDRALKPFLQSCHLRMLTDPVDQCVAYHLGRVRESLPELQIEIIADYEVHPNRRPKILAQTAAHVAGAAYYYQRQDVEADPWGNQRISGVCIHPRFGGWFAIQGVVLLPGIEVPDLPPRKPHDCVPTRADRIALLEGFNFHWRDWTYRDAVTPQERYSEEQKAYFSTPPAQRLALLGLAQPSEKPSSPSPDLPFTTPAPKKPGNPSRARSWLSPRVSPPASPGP
Experimental: as §1, §2

[3] = molecular target: T3, His-MMACHC-wt (Homo sapiens, UniProt Q9Y4U1); set-up: method as in PMID 18779575; settings: cited from earlier work
T3 construct: made in house; host or cells: E. coli BL21 DE3
T3 sequence (Q9Y4U1 1-282): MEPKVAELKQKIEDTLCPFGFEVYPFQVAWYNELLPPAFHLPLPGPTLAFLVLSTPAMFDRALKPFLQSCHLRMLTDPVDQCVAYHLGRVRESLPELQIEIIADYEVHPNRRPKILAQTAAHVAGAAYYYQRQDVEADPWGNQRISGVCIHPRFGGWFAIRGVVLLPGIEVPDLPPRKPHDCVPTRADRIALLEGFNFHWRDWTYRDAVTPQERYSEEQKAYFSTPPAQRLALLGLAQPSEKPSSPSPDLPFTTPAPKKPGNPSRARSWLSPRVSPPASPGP

[4] = molecular target: T4, GST-MMACHC-wt (Homo sapiens, UniProt Q9Y4U1); experiment: UV-visible absorption spectra, base-on/base-off binding; settings: 5 μM cobalamin, 50 μM protein, pH 7.0
T4 construct: made in house
T4 sequence (Q9Y4U1 1-282): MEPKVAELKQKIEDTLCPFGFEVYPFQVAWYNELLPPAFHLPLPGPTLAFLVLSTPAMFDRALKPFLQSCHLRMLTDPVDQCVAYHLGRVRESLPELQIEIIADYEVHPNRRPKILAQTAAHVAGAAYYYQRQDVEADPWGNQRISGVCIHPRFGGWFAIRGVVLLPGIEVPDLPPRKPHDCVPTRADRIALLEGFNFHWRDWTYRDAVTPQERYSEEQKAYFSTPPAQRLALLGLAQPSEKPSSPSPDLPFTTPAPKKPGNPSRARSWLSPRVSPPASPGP
Experimental: (§3) To determine base-on or base-off binding, 5 μM of the appropriate cobalamin or cobinamde in buffer (100 mM Tris, pH 7.0), was incubated in the dark with 400 μl total of 50 μM MMACHC protein (wild-type or R161Q), prepared in the same buffer, or alone, for 5 min at room temperature. In order to retain the high amounts of protein necessary for these experiments, the His-tag (wt and R161Q) or GST-tag (wt protein) was left on. Absorption spectrum measurements were carried out using a MOS-250 spectrometer and recorded using Bio-Kine 32 v4.20 software.
(§4) In order to determine whether the R161Q mutation interferes with the ability of MMACHC to support this transition, we examined the UV–visible absorption spectra for the proteins bound to AdoCbl, as an example of an alkylcobalamin, as well as for the proteins bound to CNCbl and OHCbl. Each cobalamin was added at a concentration of […] (Fig. 5). To determine whether the cobalamin was base-on or base-off, in the case of CNCbl both base-on and base-off spectra were determined for the free vitamin, as previously reported [[12,14]]. […] Confirming our earlier data, GST-tagged MMACHC-wt bound CNCbl in the base-off state (Table 2). […] Both MMACHC-wt and MMACHC-R161Q bound AdoCbl in the base-off state (Fig. 5; Table 2). […] Finally, neither MMACHC-wt nor MMACHC-R161Q modified OHCbl binding, which retained the base-on profile regardless of the MMACHC species present (Fig. 5; Table 2).

[5] = molecular target: T3, His-MMACHC-wt; experiment: as above; settings: 5 μM cobalamin, 50 μM protein, pH 7.0
Experimental: as §3, §4

[6] = molecular target: T5, His-MMACHC-R161Q (Homo sapiens, UniProt Q9Y4U1, R161Q); experiment: as above; settings: 5 μM cobalamin, 50 μM protein, pH 7.0
T5 construct: made in house; host or cells: E. coli BL21 DE3
T5 sequence (Q9Y4U1 1-282 R161Q): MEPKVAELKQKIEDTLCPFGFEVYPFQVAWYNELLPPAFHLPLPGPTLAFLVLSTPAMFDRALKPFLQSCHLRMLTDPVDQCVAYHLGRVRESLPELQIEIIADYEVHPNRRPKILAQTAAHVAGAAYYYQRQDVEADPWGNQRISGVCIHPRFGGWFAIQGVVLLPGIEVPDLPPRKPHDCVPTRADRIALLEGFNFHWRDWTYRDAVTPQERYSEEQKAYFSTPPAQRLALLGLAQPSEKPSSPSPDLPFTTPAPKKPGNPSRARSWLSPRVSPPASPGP
Experimental: […] In order to retain the high amounts of protein necessary for these experiments, the His-tag (wt and R161Q) or GST-tag (wt protein) was left on. Absorption spectrum measurements were carried out using a MOS-250 spectrometer and recorded using Bio-Kine 32 v4.20 software.
as §4

[7] = UV-visible absorption spectra of free cobalamin; type: physicochemical; settings: base-on, nm
Experimental: as §3, §4

[8] = DSF thermostability of apo protein; type: physicochemical; settings: apo form, His-tag removed, no ligand
Experimental: as §1
Wild-type (MMACHC-wt) and mutant (MMACHC-R161Q) MMACHC were expressed and purified to >95% purity, with His-tag removed, as judged by SDS–PAGE (Fig. 2A). […] As the protein unfolds, the dye, which has a higher fluorescence quantum yield in nonpolar environments than in aqueous media, binds to hydrophobic regions of the protein, causing a large increase in fluorescence [[22,23]]. […]

[9] = Isothermal denaturation (ITD); type: physicochemical; settings: constant 35 °C over 120 min, Sypro orange fluorescence
Experimental: ITD was performed as previously described with minor variations. Samples of both proteins prepared similarly as for DSF (at similar concentrations) were kept at constant temperature of 35 °C while monitoring the fluorescence of Sypro orange at intervals of one minute in a thermocycler (Bio-rad C1000 Thermocycler, CFX96 Real-time system) over 120 min (n = 12 for each protein).
We performed isothermal […] (ITD) to investigate further the difference in stability between the two proteins. ITD has been described as being more sensitive than DSF for detecting small changes in protein stability. ITD measures the unfolding of proteins at a constant temperature, typically chosen as a few degrees below the Tm, using a similar procedure as DSF including the use of Sypro orange as the reporter dye. […] After 120 min the intensity reached approximately half of the amplitude seen for unfolding with DSF (Fig. 2B). […] This difference cannot be explained with the relatively small difference in the Tm. If ITD is performed at a temperature that falls within the range of the unfolding transition a gradual increase in the proportion of unfolded protein molecules, i.e. a constant increase in fluorescence intensity, would still be expected even at temperatures […] the Tm (18).

C/C1=C2/[N-][C@H]([C@H](CC(N)=O)[C@@]2(C)CCC(=O)NC[C@H](C)OP(=O)([O-])O[C@H]2[C@@H](O)[C@@H](n3cnc4cc(C)c(C)cc43)O[C@@H]2CO)[C@]2(C)N=C(/C(C)=C3N=C(/C=C4N=C1[C@@H](CCC(N)=O)C\4(C)C)[C@@H](CCC(N)=O)[C@]\3(C)CC(N)=O)[C@@H](CCC(N)=O)[C@]2(C)CC(N)=O.[CH3-].[Co+3] [MeCbl, methylcobalamin]
ΔTm max [1]: 12.7 ± 0.4 °C | AC50 [1]: 2.1 ± 0.3 µM | ΔTm max [2]: 9.3 ± 0.3 °C | AC50 [2]: 8 ± 1.6 µM | binding conformation (base-on/off) [3]: base-off

C/C1=C2/[N-]C([C@H](CC(N)=O)[C@@]2(C)CCC(=O)NCC(C)O)[C@]2(C)N=C(/C(C)=C3N=C(/C=C4N=C1[C@@H](CCC(N)=O)C\4(C)C)[C@@H](CCC(N)=O)[C@]\3(C)CC(N)=O)[C@@H](CCC(N)=O)[C@]2(C)CC(N)=O.[C-]#N.[C-]#N.[Co] (some centres unmarked) [Cbi, dicyanocobinamide]
ΔTm max [1]: 9.8 ± 0.2 °C | AC50 [1]: 1.3 ± 0.2 µM | ΔTm max [2]: 6.8 ± 0.2 °C | AC50 [2]: 9.1 ± 1.6 µM

CC1=C2N=C(C=C3N=C(C(C)=C4[N-]C(C(CC(N)=O)C4(C)CCC(=O)NCC(C)OP(=O)([O-])OC4C(CO)OC(n5cnc6cc(C)c(C)cc65)C4O)C4(C)N=C1C(CCC(N)=O)C4(C)CC(N)=O)C(CCC(N)=O)C3(C)C)C(CCC(N)=O)C2(C)CC(N)=O.[CH2-]C1OC(n2cnc3c(N)ncnc32)C(O)C1O.[Co+3] (centres unmarked) [AdoCbl, 5′-deoxyadenosylcobalamin]
ΔTm max [1]: 15.5 ± 0.1 °C | AC50 [1]: 0.9 ± 0.1 µM | ΔTm max [2]: 13.2 ± 0.1 °C | AC50 [2]: 1.1 ± 0.1 µM | AC50 of R161Q relative to wild-type ([2]; times/fold less effective than with MMACHC-wt): similar | Base-on/off [4]: Off | α/β-Peak ([4]; nm): 472 nm | Base-on/off [5]: base-off and Off | α/β-Peak ([5]; nm): 460 nm | Base-on/off [6]: Off | α/β-Peak ([6]; nm): 461 nm | binding conformation (base-on/off) [3]: base-off | α/β-Peak [7]: 524 nm

B1: MMACHC-wt: recombinant wild-type MMACHC protein, His-tag removed by TEV (protein, UniProt Q9Y4U1 1-282, looked up)
Cyanocobalamin reductase / …: MEPKVAELKQKIEDTLCPFGFEVYPFQVAWYNELLPPAFHLPLPGPTLAFLVLSTPAMFDRALKPFLQSCHLRMLTDPVDQCVAYHLGRVRESLPELQIEIIADYEVHPNRRPKILAQTAAHVAGAAYYYQRQDVEADPWGNQRISGVCIHPRFGGWFAIRGVVLLPGIEVPDLPPRKPHDCVPTRADRIALLEGFNFHWRDWTYRDAVTPQERYSEEQKAYFSTPPAQRLALLGLAQPSEKPSSPSPDLPFTTPAPKKPGNPSRARSWLSPRVSPPASPGP
melting temperature (Tm) [8]: 39.3 ± 1.0 °C | unfolding by isothermal denaturation [9]: did not unfold

B2: MMACHC-R161Q: recombinant MMACHC protein carrying the late-onset cblC mutation R161Q, His-tag removed (protein, UniProt Q9Y4U1 1-282, looked up, variant R161Q)
Cyanocobalamin reductase / …: MEPKVAELKQKIEDTLCPFGFEVYPFQVAWYNELLPPAFHLPLPGPTLAFLVLSTPAMFDRALKPFLQSCHLRMLTDPVDQCVAYHLGRVRESLPELQIEIIADYEVHPNRRPKILAQTAAHVAGAAYYYQRQDVEADPWGNQRISGVCIHPRFGGWFAIQGVVLLPGIEVPDLPPRKPHDCVPTRADRIALLEGFNFHWRDWTYRDAVTPQERYSEEQKAYFSTPPAQRLALLGLAQPSEKPSSPSPDLPFTTPAPKKPGNPSRARSWLSPRVSPPASPGP
melting temperature (Tm) [8]: 37.1 ± 0.7 °C | unfolding by isothermal denaturation [9]: unfolding
